Results as given in patent US12281122B1, “PI3K inhibitors” (Cogent Biosciences, Inc., priority 2023, dated 2025).

Assays:
[1] = tested on: T47D (PI3Kα-H1047R) cell line; assay: HTRF phospho-AKT(S473) cell assay in T47D cells; format: cell-based, human
Method: (§1) Compounds in the present disclosure were tested in a cell based HTRF phospho-AKT(S473) (CisBio/Revvity) assay in human breast cancer cell lines as a measurement of PIK3CA activity through measuring AKT, a downstream effector. The activity of mutant PI3Kα-H1047R and PI3Kα-Wild Type was measured in the T47D (PI3Kα-H1047R) and SKBR3 (PI3Kα-Wild Type) cell lines, respectively. T47D cells were plated at 20,000 cells per well in 50 μL in RPMI medium supplemented with 10% FBS and 0.2 units/mL insulin, in 384 well plates. SKBR3 cells were plated at 25,000 cells per well in 50 μL in McCoy's 5A medium supplemented with 10% FBS, in 384 well plates. Cells were plated using a Combi Multidrop reagent dispenser (ThermoFisher), and placed in 5% CO2, 37° C. incubator overnight to adhere.
(§2) The next day, cells were treated with either compounds or vehicle (DMSO) in a 12-fold dose response curve of 1:3 dilutions, with 5 μM and 10 μM as the top concentrations for the T47D and SKBR3 cell lines, respectively. Compound treatment was facilitated via the D300e digital dispenser (Tecan), with a maximum DMSO concentration of 0.5%. Following compound addition, cell plates were incubated for 2 hours in 5% CO2, 37° C. incubator. The SKBR3 cells were stimulated and treated with 70 ng/ml PDGF-BB ligand (ThermoFisher) for the remaining 15 minutes of the incubation. Following compound incubation, compound and media was aspirated from the cells and 25 μL of supplemented lysis buffer was added per well, and incubated for 45 minutes at room temperature, shaking at 600 rpm. Next, 16 μL of cell lysate was added to a 384 well low volume ProxyPlate (Perkin Elmer/Revvity) mixed with 4 μL of HTRF antibodies (1:1 Eu Cryptate+d2 Cryptate). HTRF supplemented lysis buffer and antibody reagents were used from the phosphor-AKT(S473) HTRF assay kit (CisBio/Revvity), following manufacturers protocol recommendations. Plates were sealed and incubated at 4° C. overnight.
(§3) The following day, plates were centrifuged for 1 minute at 1000 rpm, and read on a PHERAstar plate reader. IC50 values were calculated using Spotfire software.

[2] = tested on: SKBR3 (PI3Kα-Wild Type) cell line; assay: HTRF phospho-AKT(S473) cell assay in SKBR3 cells; format: cell-based, human
Method: as §1, §2, §3

[3] = Homo sapiens; T47D (PI3Kα-H1047R) cells, HTRF phospho-AKT(S473), 2 hours compound incubation
[4] = Homo sapiens, SK-BR-3; SKBR3 (PI3Kα-Wild Type) cells, HTRF phospho-AKT(S473), 2 hours compound incubation, PDGF-BB stimulated
[5] = Homo sapiens; HTRF phospho-AKT(S473), T47D (PI3Kα-H1047R) cells, 2 hours compound incubation
[6] = Homo sapiens, SK-BR-3; HTRF phospho-AKT(S473), SKBR3 (PI3Kα-Wild Type) cells, 2 hours compound incubation, PDGF-BB stimulated

SMILES	IC50 [1, 3] [nM]	IC50 [2, 4] [nM]	IC50 [1, 5] [nM]	IC50 [2, 6] [nM]	IC50 ([1]; HTRF phospho-AKT(S473), T47D (PI3Kα-H1047R) cells, 2 hours compound incubation) [nM]
CO[C@H]1CCC2(CCN(c3nc4c([C@@H](C)Nc5ccc(Cl)nc5C(=O)NS(C)(=O)=O)cc(C)cc4c(=O)n3C)CC2)OC1 (mixture of isomers) [Compound 721, 6-chloro-3-(((R)-1-(2-((RS)-3-methoxy-1-oxa-9-azaspiro[5.5]undecan-9-yl)-3,6-dimethyl-4-oxo-3,4-dihydroquinazolin-8-yl)ethyl)amino)-N-(methylsulfonyl) picolinamide]			250 to 500	≥ 5000	
Cc1cc([C@@H](C)Nc2ccc(Cl)nc2C(=O)NS(C)(=O)=O)c2nc([C@H]3CCCN(c4nccc(C)n4)C3)n(C)c(=O)c2c1 (mixture of isomers) [Compound 756, 6-chloro-3-(((R)-1-(3,6-dimethyl-2-((RS)-1-(4-methylpyrimidin-2-yl)piperidin-3-yl)-4-oxo-3,4-dihydroquinazolin-8-yl)ethyl)amino)-N-(methylsulfonyl) picolinamide]			500 to 1000	≥ 5000	
Cc1cc([C@@H](C)Nc2ccc(Cl)nc2C(=O)NS(C)(=O)=O)c2nc(N3[C@@H]4CC[C@H]3C[C@@H](c3cnn(C)c3)C4)n(C)c(=O)c2c1 (racemic) [Compound 381, 6-chloro-3-(((R)-1-(3,6-dimethyl-2-((1RS,3RS,5SR)-3-(1-methyl-1H-pyrazol-4-yl)-8-azabicyclo[3.2.1]octan-8-yl)-4-oxo-3,4-dihydroquinazolin-8-yl)ethyl)amino)-N-(methylsulfonyl) picolinamide]	< 250	1000 to 5000			
Cc1cc([C@@H](C)Nc2ccc(Cl)nc2C(=O)NS(C)(=O)=O)c2nc(N3C[C@H]4C[C@@H](C3)C4c3n[nH]cc3F)n(C)c(=O)c2c1 (mixture of isomers) [Compound 650, 6-chloro-3-(((1R)-1-(2-((1R,5S)-6-(4-fluoro-1H-pyrazol-3-yl)-3-azabicyclo[3.1.1]heptan-3-yl)-3,6-dimethyl-4-oxo-3,4-dihydroquinazolin-8-yl)ethyl)amino)-N-(methylsulfonyl) picolinamide]			250 to 500	≥ 5000	
Cc1cc([C@@H](C)Nc2ccc(Cl)nc2C(=O)NS(C)(=O)=O)c2nc(N3CCC[C@H](c4ccncc4)C3)n(C)c(=O)c2c1 (relative stereo) [Compound 205, 6-chloro-3-(((R)-1-(3,6-dimethyl-4-oxo-2-((R*)-3-(pyridin-4-yl)piperidin-1-yl)-3,4-dihydroquinazolin-8-yl)ethyl)amino)-N-(methylsulfonyl) picolinamide]	< 250	1000 to 5000			
Cc1cc([C@@H](C)Nc2ccc(Cl)nc2C(=O)NS(C)(=O)=O)c2nc([C@@H]3CCCN(c4cccnc4)C3)n(C)c(=O)c2c1 (relative stereo) [Compound 211, 6-chloro-3-(((R)-1-(3,6-dimethyl-4-oxo-2-((R*)-1-(pyridin-3-yl)piperidin-3-yl)-3,4-dihydroquinazolin-8-yl)ethyl)amino)-N-(methylsulfonyl) picolinamide]	< 250	1000 to 5000			
Cc1cc([C@@H](C)Nc2ccc(Cl)nc2C(=O)NS(C)(=O)=O)c2nc([C@@H]3CCCN(c4ccccn4)C3)n(C)c(=O)c2c1 (relative stereo) [Compound 212, 6-chloro-3-(((R)-1-(3,6-dimethyl-4-oxo-2-((R*)-1-(pyridin-2-yl)piperidin-3-yl)-3,4-dihydroquinazolin-8-yl)ethyl)amino)-N-(methylsulfonyl) picolinamide]	< 250	1000 to 5000			
Cc1cc([C@@H](C)Nc2ccc(Cl)nc2C(=O)NS(C)(=O)=O)c2nc(N3C[C@@H]4C[C@H]3C[C@@H]4c3nn(C)cc3F)n(C)c(=O)c2c1 (relative stereo) [Compound 760, 6-chloro-3-(((R)-1-(2-((1R*,4S*,5R*)-5-(4-fluoro-1-methyl-1H-pyrazol-3-yl)-2-azabicyclo[2.2.1]heptan-2-yl)-3,6-dimethyl-4-oxo-3,4-dihydroquinazolin-8-yl)ethyl)amino)-N-(methylsulfonyl) picolinamide]					250 to 500

Second part, the compound after the results:

IC50 [1, 3] [nM]	IC50 [2, 4] [nM]	IC50 [1, 5] [nM]	IC50 [2, 6] [nM]	IC50 ([1]; HTRF phospho-AKT(S473), T47D (PI3Kα-H1047R) cells, 2 hours compound incubation) [nM]	SMILES
< 250	1000 to 5000				Cc1cc([C@@H](C)Nc2ccc(Cl)nc2C(=O)NS(C)(=O)=O)c2nc(N3CCC[C@H](c4cn[nH]c4)C3)n(C)c(=O)c2c1 (mixture of isomers) [Compound 168, 3-(((R)-1-(2-((RS)-3-(1H-pyrazol-4-yl)piperidin-1-yl)-3,6-dimethyl-4-oxo-3,4-dihydroquinazolin-8-yl)ethyl)amino)-6-chloro-N-(methylsulfonyl) picolinamide]
< 250	1000 to 5000				Cc1cc([C@@H](C)Nc2ccc(Cl)nc2C(=O)NS(C)(=O)=O)c2nc(N3CCC[C@@H](c4ccc(C)nc4)C3)n(C)c(=O)c2c1 (mixture of isomers) [Compound 215, 6-chloro-3-(((R)-1-(3,6-dimethyl-2-((RS)-3-(6-methylpyridin-3-yl)piperidin-1-yl)-4-oxo-3,4-dihydroquinazolin-8-yl)ethyl)amino)-N-(methylsulfonyl) picolinamide]
		250 to 500	≥ 5000		Cc1cc([C@@H](C)Nc2ccc(Cl)nc2C(=O)NS(C)(=O)=O)c2nc(N3CCC[C@@H](c4nccc(C)n4)C3)n(C)c(=O)c2c1 (mixture of isomers) [Compound 633, 6-chloro-3-(((R)-1-(3,6-dimethyl-2-((RS)-3-(4-methylpyrimidin-2-yl)piperidin-1-yl)-4-oxo-3,4-dihydroquinazolin-8-yl)ethyl)amino)-N-(methylsulfonyl) picolinamide]
		250 to 500	≥ 5000		Cc1cc([C@@H](C)Nc2ccc(Cl)nc2C(=O)NS(C)(=O)=O)c2nc(N3C[C@@H]4CC(c5cnc(C)nc5)C[C@H]4C3)n(C)c(=O)c2c1 (mixture of isomers) [Compound 762, 6-chloro-3-(((R)-1-(3,6-dimethyl-2-((3aRS,6aRS)-5-(2-methylpyrimidin-5-yl)hexahydrocyclopenta [c]pyrrol-2(1H)-yl)-4-oxo-3,4-dihydroquinazolin-8-yl)ethyl)amino)-N-(methylsulfonyl) picolinamide]
		500 to 1000	≥ 5000		Cc1cc([C@@H](C)Nc2ccc(Cl)nc2C(=O)NS(C)(=O)=O)c2nc(C3CCCN(c4ncc(F)cn4)C3)n(C)c(=O)c2c1 (mixture of isomers) [Compound 748, 6-chloro-3-(((1R)-1-(2-(1-(5-fluoropyrimidin-2-yl)piperidin-3-yl)-3,6-dimethyl-4-oxo-3,4-dihydroquinazolin-8-yl)ethyl)amino)-N-(methylsulfonyl) picolinamide]
< 250	1000 to 5000				Cc1cc([C@@H](C)Nc2ccc(Cl)nc2C(=O)NS(C)(=O)=O)c2nc(N3CCC[C@H](c4cnn(C)c4)C3)n(C)c(=O)c2c1 (relative stereo) [Compound 194, 6-chloro-3-(((R)-1-(3,6-dimethyl-2-((R*)-3-(1-methyl-1H-pyrazol-4-yl)piperidin-1-yl)-4-oxo-3,4-dihydroquinazolin-8-yl)ethyl)amino)-N-(methylsulfonyl) picolinamide]
< 250	1000 to 5000				Cc1cc([C@@H](C)Nc2ccc(Cl)nc2C(=O)NS(C)(=O)=O)c2nc(N3CCC[C@@H](c4cnn(C)c4)C3)n(C)c(=O)c2c1 (relative stereo) [Compound 202, 6-chloro-3-(((R)-1-(3,6-dimethyl-2-((R*)-3-(1-methyl-1H-pyrazol-4-yl)piperidin-1-yl)-4-oxo-3,4-dihydroquinazolin-8-yl)ethyl)amino)-N-(methylsulfonyl) picolinamide]
< 250	1000 to 5000				Cc1cc([C@@H](C)Nc2ccc(Cl)nc2C(=O)NS(C)(=O)=O)c2nc(N3CCC[C@@H](c4ccncc4)C3)n(C)c(=O)c2c1 (relative stereo) [Compound 207, 6-chloro-3-(((R)-1-(3,6-dimethyl-4-oxo-2-((R*)-3-(pyridin-4-yl)piperidin-1-yl)-3,4-dihydroquinazolin-8-yl)ethyl)amino)-N-(methylsulfonyl) picolinamide]
250 to 500	≥ 5000				Cc1cc([C@@H](C)Nc2ccc(Cl)nc2C(=O)NS(C)(=O)=O)c2nc(N3CCC[C@@H](c4ccccn4)C3)n(C)c(=O)c2c1 (relative stereo) [Compound 208, 6-chloro-3-(((R)-1-(3,6-dimethyl-4-oxo-2-((R*)-3-(pyridin-2-yl)piperidin-1-yl)-3,4-dihydroquinazolin-8-yl)ethyl)amino)-N-(methylsulfonyl) picolinamide]
